Measurements: patent publication US4250259A, “Microbiological production of ketones from C3 -C6 secondary alcohols” (priority 1979, dated 1981)

Columns and labels:
[1] = test system: cell extracts (NAD+-dependent secondary alcohol dehydrogenase); assay: sec-alcohols to methyl ketones by cell extracts of yeasts, gas chromatography; assay type: biochemical, Torulopsis sp. strain A1 NRRL-Y-11,419; details: grown on methanol
[2] = test system: Torulopsis sp. Strain A1 (NRRLY-11,419); assay: sec-alcohols to ketones by cell suspensions of yeasts; assay type: cell-based
[3] = test system: purified secondary alcohol dehydrogenase; assay: substrate specificity, electron acceptor and stoichiometry of purified yeast SADH
[4] = test system: Methylobacterium organophilum XX (ATCC 27886); assay: sec-alcohols to ketones by resting cell suspensions; assay type: cell-based
Description: (§1) The pH of the nutrient medium was adjusted to 7.0 by the addition of acid or base and 50 ml. samples of the nutrient medium were charged into a plurality of 300 ml. shaker flasks. The shaker flasks were inoculated with an inoculating loop of cells from an agar plate containing homogeneous colonies of the microorganisms on the plate (the purity of the isolates was confirmed by microscopic examination). The isolates had been maintained on methanol (0.4% V/V) agar plates or on agar plates under an atmosphere of methane and air having a 1:1 V/V gas ratio which had been transferred every two weeks. For growth on methanol, the medium was supplemented with 0.4% methanol. For growth on methane, the gaseous phase of the inoculated flasks was replaced with a gas mixture comprised of methane and air having a ratio of 1:1 on a V/V basis. The inoculated flasks were sealed air-tight and were incubated on a rotary shaker of orbital radius 2.5 cm. at 250 rpm and at 30° C. for two days until turbidity in the medium had developed. The cells were harvested by centrifugation at 10,000×g. at 4° C. for 30 minutes. The cell pellet was washed twice with a 0.05 M phosphate buffer at a pH of 7.0 (containing 0.02 M MgCl2). The washed cells were then suspended in a 0.05 M phosphate buffer at pH 7.0.
(§2) A 0.5 ml. sample of each washed cell suspension (2 mg. cells) was put into 10 ml. vials at 4° C. which were sealed with a rubber cap. The gaseous phase of the vials was removed with vacuum and then was replaced with a gas mixture of the substrate reactant (i.e., alkane or secondary alcohol) and oxygen at a 1:1 V/V ratio. (In the case of a liquid substrate, i.e., secondary alcohol, 10 μl of the substrate was put in the 10 ml. vials). […] Samples of product (1-3 μl) were withdrawn periodically with a microsyringe and the products were analyzed by gas chromatography (ionization flame detector column).
(§3) The procedure in Example 1 was repeated wherein a plurality of the methane-utilizing methylotrophic microorganisms were each grown aerobically in a nutrient medium containing methane as the alcohol dehydrogenase enzyme inducer and as the major carbon and energy source for growth. The cells were harvested and washed as described in Example 1. The resting microbial cells of the induced methane-grown methane-utilizing methylotrophic microorganisms were then contacted with C3 -C6 secondary alcohols in a buffered solution by the procedure of Example 1.
(§4) In this example, the procedure in Example 1 was repeated except that a plurality of methane-utilizing methylotrophic microorganisms were each aerobically grown in a methanol-containing nutrient medium instead of a methane-containing medium. The nutrients in the medium were the same as indicated in Example 1 except that 0.4% V/V methanol was used as the alcohol dehydrogenase inducer and major source of carbon and energy for growth. Following growth, the cells were harvested and washed as described in Example 1.
(§5) The resting cells of the induced methanol-grown methylotrophic microorganisms were then contacted with secondary alcohols in a buffered solution by the procedure described in Example 1.
(§6) The procedure in Example 1 was repeated except that the methylotrophic microorganisms were each aerobically grown in an alcohol dehydrogenase-inducing growth medium containing methylamine or methyl formate as the alcohol dehydrogenase enzyme inducer and growth substrate instead of methane. The nutrients in the medium were the same as indicated in Example 1 except that 0.4% V/V of the alcohol dehydrogenase-inducer growth substrate was used as the major carbon and energy source. The cells were harvested and washed as described in Example 1. The resting microbial cells were then contacted with C3 -C6 secondary alcohols in a buffered solution by the conversion procedure of Example 1.

[5] = test system: Methylosinus trichosporium OB3b (NRRL B-11,196); assay: as above; assay type: cell-based
Description: as §1, §2, §3, §4, §5, §6

[6] = test system: secondary alcohol dehydrogenase (SADH), cell-free soluble extract; assay: oxidation of sec-alcohols by cell-free soluble extracts; assay type: biochemical, Methylococcus capsulatus CRL M1 (NRRL B-11,219); details: soluble crude extract; grown on methanol
Description: To prepare the cell-free secondary alcohol dehydrogenase (SADH) system, the washed cells were disrupted with a Wave Energy Ultrasonic Oscillator, Model W201 (Wave Energy System, Inc., Newtown, Pa.) and centrifuged at 20,000×g. for 30 minutes. […] The enzyme activity was measured with a fluorescence spectrophotometer (Perkin Elmer, Model MPF 44A) by following the formation of reduced NAD (EX 340 nm, Em 460 nm). The formation of reduced NAD was also followed with an absorption spectrophotometer at 340 nm. The assay system (3 ml.) contained: potassium phosphate buffer pH 7.0; 150 μmol.; NAD 1 μmol.; a given amount of enzyme preparation; and secondary alcohol 10 μmol. The reaction was started by the addition of substrate. One unit of enzyme activity represents the reduction of one μmole NAD per minute. Protein concentrations were determined by the Lowry method (J. Biol. Chem., 193: 255-275 (1951)).
The experimental procedure for the tests reported in Table VIII were as follows: 1 mg protein of crude extract was added into a 0.5 ml. 0.05 M phosphate buffer (pH 7.0) in a 10-ml. vial. […] The reaction mixture was incubated at 30° C. on a water bath. A 3 μl sample was removed with a syringe at 15 min. of incubation and was assayed with g.l.c. Catalytic activity was also assayed by fluorescence spectrophotometry.

[7] = test system: purified secondary alcohol dehydrogenase (SADH); assay: substrate specificity and Michaelis constants of purified SADH; assay type: biochemical, Pseudomonas sp. ATCC 21439
[8] = test system: Methylococcus capsulatus, Texas (ATCC 19069); assay: sec-alcohols to ketones by resting cell suspensions; assay type: cell-based
Description: as §1, §2, §3, §4, §5

[9] = test system: Methylomonas methanica S1 (NRRL B-11,199); assay: as above; assay type: cell-based
Description: as §1, §2, §3, §4, §5

[10] = test system: Methylobacter capsulatus Y (NRRL B-11,201); assay: as above; assay type: cell-based
Description: as §1, §2, §3, §4, §5

[11] = test system: Methylocystis parvus OBBP (NRRL B-11,198); assay: as above; assay type: cell-based
Description: as §1, §2, §3, §4, §5

[12] = test system: cell extracts (NAD+-dependent secondary alcohol dehydrogenase); assay: sec-alcohols to methyl ketones by cell extracts of yeasts, gas chromatography; assay type: biochemical, Kloeckera sp. strain A2 NRRL-Y-11,420; details: grown on methanol

## CC(C)O [2-Propanol, 2-propanol]
[1]
  Conversion Rate, sec-alcohol to methyl ketone: 4.5 μmoles/hr/mg Protein
[2]; Growth Substrate Ethanol
  Conversion Rate, sec-alcohol to corresponding ketone: 4.2 μmoles/hr/mg of protein
[2]; Growth Substrate Methanol
  Conversion Rate, sec-alcohol to corresponding ketone: 4.5 μmoles/hr/mg of protein
[2]; Growth Substrate Methylamine
  Conversion Rate, sec-alcohol to corresponding ketone: 4.3 μmoles/hr/mg of protein
[2]; Growth Substrate Methylformate
  Conversion Rate, sec-alcohol to corresponding ketone: 4.5 μmoles/hr/mg of protein
[2]; Growth Substrate Propylamine
  Conversion Rate, sec-alcohol to corresponding ketone: 3.2 μmoles/hr/mg of protein
[3]; examined spectrophotometrically
  oxidation by the purified yeast secondary alcohol dehydrogenase: catalyzed the oxidation
[3]; stoichiometry, Acetone from Isopropanol, 2-Butanone from 2-Butanol, gas chromatography
  Product Formed: 5.5 µmol
[4]; cells grown on methane
  Conversion Rates, sec-alcohol to corresponding ketone: 0.5 μmoles/hr/mg protein
[4]; cells grown on methanol
  Conversion Rates, sec-alcohol to corresponding ketone: 0.70 μn moles/hr/mg protein
[4]; methyl formate-grown cells
  Conversion Rates, sec-alcohol to corresponding ketone: 0.48 μmoles/hr/mg protein
[5]; cells grown on methane
  Conversion Rates, sec-alcohol to corresponding ketone: 0.25 μmoles/hr/mg protein
[5]; cells grown on methanol
  Conversion Rates, sec-alcohol to corresponding ketone: 0.30 μn moles/hr/mg protein
[5]; methyl formate-grown cells
  Conversion Rates, sec-alcohol to corresponding ketone: 0.95 μmoles/hr/mg protein
[6]
  Oxidation Rate, sec-alcohol to corresponding ketone: 1.7 nmole/min/mg protein
[7]
  oxidation by purified SADH: highest
[8]; cells grown on methane
  Conversion Rates, sec-alcohol to corresponding ketone: 0.80 μmoles/hr/mg protein
[8]; cells grown on methanol
  Conversion Rates, sec-alcohol to corresponding ketone: 0.75 μn moles/hr/mg protein
[9]; cells grown on methane
  Conversion Rates, sec-alcohol to corresponding ketone: 0.40 μmoles/hr/mg protein
[9]; cells grown on methanol
  Conversion Rates, sec-alcohol to corresponding ketone: 0.35 μn moles/hr/mg protein
[10]; cells grown on methane
  Conversion Rates, sec-alcohol to corresponding ketone: 0.15 μmoles/hr/mg protein
[10]; cells grown on methanol
  Conversion Rates, sec-alcohol to corresponding ketone: 0.52 μn moles/hr/mg protein
[11]; cells grown on methane
  Conversion Rates, sec-alcohol to corresponding ketone: 0.32 μmoles/hr/mg protein
[11]; cells grown on methanol
  Conversion Rates, sec-alcohol to corresponding ketone: 0.25 μn moles/hr/mg protein
[12]
  Conversion Rate, sec-alcohol to methyl ketone: 4.8 μmoles/hr/mg Protein
